Patent US3954767A, “Piperazine salts of 2,5-dihydroxy benzene sulfonic acid mono- and diesters” (priority 1972, dated 1976)
Structures can show the parent of a compound that is named as a salt.

Key:
[1] = tested on: rats treated with Triton WR-1339; assay: Hypolipemic action on the rat, Triton WR-1339 method; format: in vivo; conditions: for Percentage reduction of lipids: Cholesterol / Percentage reduction of lipids: Total Lipids / Percentage reduction of lipids: Triglycerides: Table VI, with respect to Triton WR-1339
Description: The above-mentioned Triton WR-1339 method was selected. The total cholesterol, triglycerides and total lipids were determined in the serum. The amount of Triton WR-1339 administered to the animals was 300 mg/kg. The amount of piperazine 2,5-dihydroxy benzene sulfonate mono-tosylate administered was 2 mMoles/Kg orally. The letter P signifies probability.
The above-mentioned Triton WR-1339 method was selected. The total cholesterol, triglycerides and total lipids were determined in the serum. The results obtained are given in Table V. The amount of Triton WR-1339 administered to the animals was 300 mg/Kg. The amount of the piperazine salt with one mole of the di-0-(p-chloro phenoxy isobutyrate) of 2,5-dihydroxy benzene sulfonic acid administered was 1 mMol/Kg orally. The letter P signifies probability.
In this Triton WR-1339 method, all the compounds are administered at a dose of 2 mMoles/Kg orally excepted those compounds in which is the residue of p-chlorophenoxy isobutyric acid, which are administered orally at a dose corresponding to 2 mMoles of R per Kg, i.e. the amount used is calculated on the basis of the residue R only.

[2] = Acute toxicity (LD50), mouse, oral, method of Reed and Muench; format: in vivo, mouse (albino); conditions: mouse, in vivo, po
Description: (§1) The acute toxicities for the mouse are also very low. The medium lethal dose (LD50) for the mouse was determined according to the modified method of Reed and Muench (Reed L. J. & Muench H., Am. J. Hyg., 27, 493, 1938).
(§2) 1. ACUTE TOXICITY IN THE MOUSE AND RAT
(§3) 18 to 25 gr albino mouse.
(§4) The LD50 was determined according to the method of Reed and Muench. […]

mouse = assay: as above; format: in vivo, mouse (albino); conditions: Table VI; species and route not printed in table (mouse per b12)
Description: as §1, §2, §3, §4

white Leghorn chickens = assay: Hypolipemic action on the chicken; format: in vivo, chicken (white Leghorn)
Description: as §1
This study was performed with white Leghorn chickens, according to the above-mentioned method. The total cholesterol and the total lipids are determined in the plasma.

[3] = Acute toxicity (LD50), rat, oral, method of Reed and Muench; set-up: species or system rat (Sprague-Dawley); conditions: in vivo
Description: as §2
100 to 150 gr. Sprague-Dawley rats.
The LD50 was determined according to the method of Reed and Muench.

[4] = orally, 2 mMoles of R (p-chlorophenoxy isobutyric acid residue) per Kg
[5] = Table VI, species and route not printed in table (mouse per b12), read-out: LD50 (medium lethal dose)
[6] = Triton 300 mg/kg + compound 2 mMoles/Kg orally, P<0,0005

## CC(C)(Oc1ccc(Cl)cc1)C(=O)Oc1ccc(O)cc1S(=O)(=O)O [calcium 2-O-(p-chlorophenoxyisobutyryl) 2,5-dihydroxy benzene sulfonate]
[1]; [4]
  Percentage reduction of lipids: Cholesterol: 30%
  Percentage reduction of lipids: Total Lipids: 26%
  Percentage reduction of lipids: Triglycerides: 32%
[2]; [5]
  LD50: 3.35 mg/kg

## Cc1ccc(S(=O)(=O)Oc2ccc(O)c(S(=O)(=O)O)c2)cc1 [diethylamine-2,5-dihydroxybenzenesulfonate monotosylate] [diethylamine 2,5-dihydroxy benzene sulfonate mono-tosylate]
[1]; 2 mMoles/Kg orally
  Percentage reduction of lipids: Cholesterol: 23%
  Percentage reduction of lipids: Total Lipids: 31%
  Percentage reduction of lipids: Triglycerides: 32%
mouse
  LD50 (medium lethal dose): 6.588 mg/kg

## CC(C)(Oc1ccc(Cl)cc1)C(=O)Oc1ccc(O)c(S(=O)(=O)O)c1 [mono-p-chloro phenoxy isobutyrate of pyridine 2,5-dihydroxy benzene sulfonate]
[2]; [5]
  LD50: 900 mg/kg

## O=C(Oc1ccc(OC(=O)c2ccccc2)c(S(=O)(=O)O)c1)c1ccccc1 [morpholine 2.5-dihydroxybenzenesulphonate dibenzoate]
[2]; [5]
  LD50: 4000 mg/kg

## Cc1ccc(S(=O)(=O)Oc2ccc(O)c(S(=O)(=O)O)c2)cc1 [piperazine 2,5-dihydroxybenzenesulfonate monotosylate] [piperazine 2.5-dihydroxybenzenesulphonate monotosylate]
[1]; 2 mMoles/Kg orally
  Percentage reduction of lipids: Cholesterol: 18%
  Percentage reduction of lipids: Total Lipids: 42%
  Percentage reduction of lipids: Triglycerides: 43%
[1]; Triton 300 mg/kg + compound 2 mMoles/Kg orally, 0,0005<P<0,0025
  total cholesterol: 232,3 mg % ml of plasma
[1]; [6]
  total lipids: 1211,4 mg % ml of plasma
  triglycerides: 639,8 mg % ml of plasma
White Leghorn chickens; final relative to initial value, check sample X = 1075
  total lipids, b/a . 100 (Y): 726
White Leghorn chickens; final relative to initial value, check sample X = 1514
  total cholesterol, b/a . 100 (Y): 1017
White Leghorn chickens; final value
  total cholesterol, final value (b): 947,2 mg % ml of plasma
  total lipids, final value (b): 2360,8 mg % ml of plasma
White Leghorn chickens; initial value
  total cholesterol, initial value (a): 93,1 mg % ml of plasma
  total lipids, initial value (a): 325,2 mg % ml of plasma

## Cc1ccc(S(=O)(=O)Oc2ccc(O)c(S(=O)(=O)O)c2)cc1 [piperazine 2.5-dihydroxybenzenesulphonate monotosylate]
[3]; rat female
  LD50: 11900 mg/kg
[3]; rat male
  LD50: > 11900 mg/kg
[2]; mouse female, read-out: LD50
  LD50: > 10800 mg/kg
[2]; mouse male, read-out: LD50
  LD50: > 10800 mg/kg

## CC(C)(Oc1ccc(Cl)cc1)C(=O)Oc1ccc(OC(=O)C(C)(C)Oc2ccc(Cl)cc2)c(S(=O)(=O)O)c1 [piperazine mono-salt of di-O-(p-chlorophenoxy isobutyrate) of 2,5-dihydroxy benzene sulfonic acid]
[3]; rat female
  LD50: 11700 mg/kg
[3]; rat male
  LD50: 11000 mg/kg
[2]; [5]
  LD50: 11000 mg/kg
[2]; mouse female, read-out: LD50
  LD50: 8700 mg/kg
[2]; mouse male, read-out: LD50
  LD50: 11000 mg/kg

## Cc1ccc(S(=O)(=O)Oc2ccc(O)c(S(=O)(=O)O)c2)cc1 [piperidine 2.5-dihydroxybenzenesulphonate monotosylate]
[2]; [5]
  LD50: 5000 mg/kg

## Cc1ccc(S(=O)(=O)Oc2ccc(OS(=O)(=O)c3ccc(C)cc3)c(S(=O)(=O)O)c2)cc1 [pyridine 2,5-dihydroxy benzene sulfonate ditosylate]
[1]; 2 mMoles/Kg orally
  Percentage reduction of lipids: Cholesterol: 17%
  Percentage reduction of lipids: Total Lipids: 31%
  Percentage reduction of lipids: Triglycerides: 44%
[2]; [5]
  LD50: 700 mg/kg
